# Results from US20220288060A1, “Treatment of Opioid Withdrawal” (Kinoxis Therapeutics Pty Ltd, priority 2019, published 2022).
# Values joined by “and” are separate entries in the source; they are usually repeats but may differ in a detail not shown here. Identical values can stand only once. “Also recorded” adds a separate entry of the source.
# How the values were obtained:
# [1] = system: naloxone precipitated oxycodone withdrawal in C57BL/6 mice; experiment: Naloxone precipitated oxycodone withdrawal-induced jumping, two salt forms (Example 4, Experiment 2.1); type: in vivo, mouse; conditions: 7.3 mg/kg FBE i.p.; for Oxycodone withdrawal-induced jumping vs OXY_VEH: CMPD1-PO4 p<0.01, CMPD1-2HCL p<0.001; for Withdrawal-induced jumping, comparison of the two salt forms: OXY_CMPD1-PO4 vs OXY_2 HCL p=0.901
# [2] = clinical trials; cited from earlier work
# [3] = system: C57BL/6 mice; experiment: Open field locomotor activity test (Experiment 1.1); type: in vivo, mouse
# Description: N=18 adult male C57BL/6 mice received either 0, 5 or 10 mg/kg CMPD1-2HCL (i.p.; n=6 per condition). Fifteen minutes after receiving their i.p. injection of CMPD1-2HCL mice were placed individually into a novel 40 (l)×40 (w)×40 (h) cm locomotor testing arena. Sessions were captured by overhead cameras and videos were analysed by using the automated behaviour tracking software CleverSys Topscan (CleverSys, Virginia, USA), which provided the distance travelled by each mouse in each 5 min time bin over the 60 minute locomotor testing session. Data were analysed by SPSS using mixed model ANOVA.
# [4] = system: naloxone precipitated oxycodone withdrawal in C57BL/6 mice; experiment: Naloxone precipitated oxycodone withdrawal: jumping and paw tremors (Experiment 1.2); type: in vivo, mouse; conditions: for Number of jumps for each mouse in the 30 min test session / Total duration of paw tremors for each mouse in the 30 minute test session: oxycodone condition mice, individual mice
# Description: Adult male C57BL/6 mice (N=40) were allocated to one of five conditions (n=8 per condition):
# (§1) Mice in the oxycodone conditions received i.p. injections of oxycodone for 5 days according to the schedule and doses set out in Table 1. The morning and afternoon doses were separated by 7 h. Mice in the vehicle condition received injections of vehicle saline instead of oxycodone. One-hour-and-forty-five minutes after the morning injection on day 5, mice were administered their i.p. dose of CMPD1-2HCL. Fifteen minutes later they received an i.p. injection of 10 mg/kg naloxone (oxycodone groups) or saline (vehicle group), and proceeded immediately to testing.
# Testing involved placing mice individually into a 20 (l)×20 (w)×30 (h) cm arena for 30 min. Sessions were captured via a side view high speed (120 fps), high resolution (4K) camera. Number of jumps and total duration of paw tremors were scored from the videos by an experienced experimenter blind to conditions.
# Data were analysed by SPSS using oneway ANOVA and planned contrasts.
# [5] = system: c-fos protein expression in the brain; experiment: Naloxone-precipitated opioid withdrawal-induced c-fos protein expression in the brain (Example 2); type: in vivo, mouse; conditions: 10 mg/kg i.p.; 8 brain regions; 75 minutes after naloxone
# Description: In this example, the ability of Compound 1 to inhibit naloxone-precipitated opioid withdrawal-induced c-fos protein expression in the brain was studied. C-fos is a protein marker of neural activation. Compound 1 was administered in dihydrochloride salt form (CMPD1-2HCL).
# N=40 male C57BL/6 mice were assigned to one of the following four conditions:
# Mice in the oxycodone (OXY) conditions received i.p. injections of oxycodone for 9 days with increasing doses of 9, 17.8, 23.7 and 33 mg/kg (twice daily on days 1-8, with dose increasing every other day). The morning and afternoon doses were separated by 7 h. Mice in the vehicle condition (VEH) received injections of vehicle saline instead of oxycodone. One-hour-and-forty-five minutes after the morning injection on day 9, mice were administered their i.p. dose of CMPD1-2HCL (10 mg/kg at an injection volume of […]) or VEH. Fifteen minutes later they received an i.p. injection of 10 mg/kg naloxone (OXY groups) or saline (VEH groups) to precipitate withdrawal.
# 75 minutes after their naloxone or saline injection, mice were euthanised by sodium pentobarbitone overdose, and intracardiac puncture perfusion fixation was performed with 4% paraformaldehyde, and brains were then collected for immunohistochemical processing.
# Data were analysed by SPSS using two-way ANOVA and planned contrasts.
# [6] = system: naloxone precipitated oxycodone withdrawal in C57BL/6 mice; experiment: Gastrointestinal symptoms of opioid withdrawal: fecal boli and diarrhea (Example 3); type: in vivo, mouse; conditions: 10 mg/kg i.p.
# Description: In this example, the ability of CMPD1-2HCL to inhibit the gastrointestinal symptoms of opioid withdrawal was assessed using a murine model.
# Adult male C57BL/6 mice ([…]) were allocated to one of four conditions (n=10 per condition):
# as §1, with “conditions (OXY)” for “conditions”, “7.” for “1.”, “CMPD1-2HCL (10 mg/kg).” for “CMPD1-2HCL.”
# Testing involved placing mice individually into a 20 (l)×20 (w)×30 (h) cm arena for 30 min. The number of fecal boli were counted at the end of the session and whether or not the mouse had diarrhea.
# Data were analysed using ANOVA and planned contrasts for fecal boli and Fisher's exact test for diarrhea.
# [7] = system: C57BL/6 mice; experiment: Open field locomotor activity test (Experiment 1.1); type: in vivo, mouse; conditions: 5 mg/kg i.p.; time post dose 75-80; individual mice 7-12
compound,measurement,setting,value
Cn1ncc2c1Nc1ccccc1NC2.O=P(O)(O)O [CMPD1-PO4],Oxycodone withdrawal-induced jumping vs OXY_VEH,[1],significantly inhibited
same,"Withdrawal-induced jumping, comparison of the two salt forms",[1],did not differ significantly
CC(Oc1c(Cl)cccc1Cl)C1=NCCN1 (stereo not drawn) [lofexidine],Improvements in acute opioid withdrawal symptoms and treatment retention,[2],only modest improvements
same,Side effects,[2],"hypotension, bradycardia and insomnia"
Cl.Cl.Cn1ncc2c1Nc1ccccc1NC2 [CMPD1-2HCL],Distance travelled during time bin,"[3]; 5 mg/kg i.p., time post dose 15-20 (5 min bin), individual mice 7-12",15043.46 mm and 20271.67 mm and 23636.81 mm and 18238.34 mm and 16051.42 mm and 16442.58 mm
same,Distance travelled during time bin,"[3]; 5 mg/kg i.p., time post dose 20-25, individual mice 7-12",20386.17 mm and 13996.02 mm and 16449.1 mm and 11919.46 mm and 11756.3 mm and 10974.55 mm
same,Distance travelled during time bin,"[3]; 5 mg/kg i.p., time post dose 25-30, individual mice 7-12",11089.15 mm and 11425.88 mm and 11764.23 mm and 8462.92 mm and 10127.95 mm and 8553.13 mm
same,Distance travelled during time bin,"[3]; 5 mg/kg i.p., time post dose 30-35, individual mice 7-12",13221.16 mm and 7779.42 mm and 11134.18 mm and 8664.63 mm and 9823.55 mm and 4905.54 mm
same,Distance travelled during time bin,"[3]; 5 mg/kg i.p., time post dose 35-40, individual mice 7-12",15282.34 mm and 6791.58 mm and 8208.55 mm and 11776.57 mm and 10597.55 mm and 5280.25 mm
same,Distance travelled during time bin,"[3]; 5 mg/kg i.p., time post dose 40-45, individual mice 7-12",7068.09 mm and 9050.59 mm and 7493.64 mm and 9121.74 mm and 5308.25 mm and 6050.2 mm
same,Distance travelled during time bin,"[3]; 5 mg/kg i.p., time post dose 45-50, individual mice 7-12",5367.28 mm and 6712.87 mm and 5587.1 mm and 5518.04 mm and 9993.79 mm and 5466.54 mm
same,Distance travelled during time bin,"[3]; 5 mg/kg i.p., time post dose 50-55, individual mice 7-12",945.3 mm and 7073.77 mm and 10568.53 mm and 9463.89 mm and 5234.55 mm and 6665.74 mm
same,Distance travelled during time bin,"[3]; 5 mg/kg i.p., time post dose 55-60, individual mice 7-12",3362.81 mm and 8088.81 mm and 11051.63 mm and 11843.34 mm and 6386.55 mm and 4645.85 mm
same,Distance travelled during time bin,"[3]; 5 mg/kg i.p., time post dose 60-65, individual mice 7-12",6133.83 mm and 10365.45 mm and 10059.86 mm and 11154.54 mm and 8969.03 mm and 4893.44 mm
same,Distance travelled during time bin,"[3]; 5 mg/kg i.p., time post dose 65-70, individual mice 7-12",5268.88 mm and 4809.55 mm and 6121.25 mm and 4100.88 mm and 9397.98 mm and 4757.22 mm
same,Effect on locomotor activity (distance travelled),"[3]; 5 and 10 mg/kg i.p., main effect of dose p=0.392, time by dose interaction p=0.143",does not significantly impact locomotor activity; also recorded: does not supress locomotor activity
same,Distance travelled during time bin,"[3]; Table 3, 5 mg/kg, i.p., time post dose 35-40, individual mice 13-18",11756.13 mm and 8046.38 mm (2×) and 12860.87 mm and 13271.28 mm and 10054.85 mm
same,Distance travelled during time bin,"[3]; Table 3, 5 mg/kg, i.p., time post dose 40-45, individual mice 13-18",7682.41 mm and 2222.65 mm (2×) and 11152.11 mm and 12391.75 mm and 4683.51 mm
same,Distance travelled during time bin,"[3]; Table 3, 5 mg/kg, i.p., time post dose 45-50, individual mice 13-18",11290.93 mm and 6482.48 mm (2×) and 10743.61 mm and 12658.5 mm and 8082.58 mm
same,Distance travelled during time bin,"[3]; Table 3, 5 mg/kg, i.p., time post dose 55-60, individual mice 13-18",28970.94 mm and 12316.3 mm (2×) and 32680.43 mm and 27725.23 mm and 19894.04 mm
same,Distance travelled during time bin,"[3]; Table 3, 5 mg/kg, i.p., time post dose 60-65, individual mice 13-18",17509.3 mm and 10864.14 mm (2×) and 28788.31 mm
same,Jumping relative to mice not undergoing oxycodone withdrawal (VEH 0CMPD1),"[4]; 2.5, 5, 10 mg/kg i.p., p<0.001, p<0.001, p=0.011",still showed elevated jumping
same,Oxycodone withdrawal-induced jumping vs OXCD 0CMPD1,"[4]; 2.5, 5, 10 mg/kg i.p., p=0.023, p=0.018, p<0.001",significantly inhibited
same,Dysphoric and somatic symptoms (jumping and paw tremors) of oxycodone withdrawal,"[4]; 2.5-10 mg/kg i.p., conclusion",dose dependently inhibited
same,Paw tremors relative to mice not undergoing oxycodone withdrawal (VEH 0CMPD1),"[4]; 5 and 10 mg/kg i.p., p=0.204, p=0.4 (2.5 mg/kg p<0.01)",no longer had significantly elevated paw tremors
same,Oxycodone withdrawal-induced paw tremors vs OXCD 0CMPD1,"[4]; highest dose 10 mg/kg i.p., p=0.033 (2.5 mg/kg p=0.898; 5 mg/kg p=0.083)",significantly inhibited
same,Number of jumps for each mouse in the 30 min test session,"[4]; 2.5 mg/kg i.p., 2.5 mg/kg",86 and 52 and 58 and 50 (2×) and 31 and 92 and 68
same,Total duration of paw tremors for each mouse in the 30 minute test session,"[4]; 2.5 mg/kg i.p., 2.5 mg/kg",12.4 s and 2.3 s and 78.4 s and 48 s and 27.1 s and 20.4 s and 0.2 s and 0.4 s
same,Number of jumps for each mouse in the 30 min test session,"[4]; 5 mg/kg i.p., 5 mg/kg",51 and 35 and 61 and 48 (2×) and 30 and 136 and 67
same,Total duration of paw tremors for each mouse in the 30 minute test session,"[4]; 5 mg/kg i.p., 5 mg/kg",8.2 seconds and 21.4 seconds and 3 seconds (2×) and 18.5 seconds and 2.1 seconds and 3.2 seconds and 17 seconds
same,Number of jumps for each mouse in the 30 min test session,"[4]; 10 mg/kg i.p., 10 mg/kg",25 and 120 and 17 and 33 (2×) and 26 and 51 and 34
same,Total duration of paw tremors for each mouse in the 30 minute test session,"[4]; 10 mg/kg i.p., 10 mg/kg",9.9 seconds and 0 seconds (3×) and 6 seconds and 21.5 seconds and 3.3 seconds and 9.6 seconds
same,Withdrawal induced neural activation (c-fos positive cells),[5],significantly inhibited withdrawal induced neural activation
same,Number of mice suffering from diarrhea,[6]; Fisher's exact test,inhibited
same,Amount of fecal boli produced during the 30 min session,[6]; p<0.001 vs opioid withdrawal,significantly inhibited
same,Proportion of mice suffering from diarrhea,"[6]; OXY condition, n=10, OXY, VEH 90%, VEH, VEH 0%",30%
same,Oxycodone withdrawal-induced jumping vs OXY_VEH,[1],significantly inhibited
same,"Withdrawal-induced jumping, comparison of the two salt forms",[1],did not differ significantly
same,Distance travelled during time bin,[7],3441.42 mm and 8422.46 mm and 11136.92 mm and 9156.71 mm and 2402.89 mm and 1364.63 mm
